Several values for one entry are separate records, joined by “and”; a condition that tells them apart may be missing. Identical values can stand only once. Like-named read-outs stand apart in the source and are kept apart here.
Experiments:
[1] = Systemic PK after oral administration in rats; format: in vivo; details: plasma, oral 25 mg/kg, male SD rats
[2] = Intracerebral microdialysis and plasma PK after i.p. administration in rats; format: in vivo, male SD rats
[3] = mouse, microsomes
[4] = rat, microsomes
[5] = microsomes
AMPK = details: greater potency than Compound C; cited from earlier work
ULK1 = details: read-out: IC50 ULK1; kinase inhibition assays; cited from earlier work
[6] = read-out: cytotoxicity IC50; cited from earlier work
[7] = cited from earlier work
[8] = In vitro metabolism in rat liver microsomes; details: rat (IGS SD) liver microsomes
[9] = In vitro metabolism in mouse liver microsomes; details: mouse (C57BL/6) liver microsomes
[10] = In vitro metabolism in human liver microsomes
[11] = cited from earlier work; remark: listed apart in the source
[12] = orthotopically implanted C6 glioma, rats; cited from earlier work
[13] = brain ECF, i.p. 25 mg/kg, male SD rats
[14] = i.p. 25 mg/kg, male SD rats, 25 mg/kg
[15] = plasma unbound, i.p. 25 mg/kg, male SD rats
[16] = plasma, i.p. 25 mg/kg, male SD rats
[17] = plasma, i.p. 25 mg/kg, male SD rats, 25 mg/kg

## CNC(=O)c1ccccc1Oc1nc(Nc2cc(OC)c(OC)c(OC)c2)ncc1Br [SBI-0206965]
[1]
  AUC0-inf: […]
  AUC0–5: […]
  Cmax: […]
[1]; non-compartmental analysis
  Tmax: […]
[1]; 25 mg/kg
  T1/2: […]
[2]; [13]
  AUC0-inf: […]
  AUC0–5: […]
  Tmax: […]
[2]; brain ECF, i.p. 25 mg/kg, male SD rats, 25 mg/kg
  Cmax: […]
[2]; [14]
  AUC0–5 ratio (brain ECF/plasma unbound): […]
  Cmax ratio (brain ECF/plasma unbound): […]
[2]; plasma and brain ECF, summary in abstract
  time to plasma and brain ECF peak levels: […]
[2]; plasma unbound (corrected for protein binding), i.p. 25 mg/kg, male SD rats
  Cmax: […]
[2]; [15]
  AUC0-inf: […]
  AUC0–5: […]
[2]; [16]
  AUC0-inf: […]
  AUC0–5: […]
  Tmax: […]
[2]; [17]
  Cmax: […]
  T1/2: […]
[2]; plasma, i.p. 25 mg/kg, rats
  time to peak plasma concentration: […]
[2]; rats, plasma corrected for protein binding
  brain partitioning (ratio of Cmax and AUC in brain ECF to unbound plasma): […]
[2]; read-out: brain ECF Cmax, brain ECF, i.p. 25 mg/kg, rats
  Cmax: 750 nM
[2]; summary in abstract
  elimination half-life: […]
[3]
  CLint, app: […]
[4]
  CLint, app: […]
[5]; human
  CLint, app: […]
[5]
  CLint, scaled (estimated in-vitro hepatic intrinsic clearance): […]
AMPK
  AMPK inhibition potency relative to Compound C: […]
ULK1
  IC50: […]
[6]
  IC50: […]
[7]
  logP: […]
[8]
  T1/2: […]
[9]
  T1/2: […]
[10]
  T1/2: […]

## Cn1nnc2c(C(N)=O)ncn2c1=O [temozolomide]
[11]
  elimination half-life: approximately 2 h

## N#Cc1ccc(C(c2ccc(C#N)cc2)n2cncn2)cc1 [letrozole]
[12]
  tumoral uptake relative to normal brain: two-fold higher

Reference: article PMC10154080 (Investigational new drugs, 2022)
